Experimental data: US8569336B2, “Compounds for the treatment of inflammatory disorders” (priority 2008, dated 2013)
pIC50, pKi: −log10 of the molar value. Where two headings read alike, the source gives them in different places.

Columns and labels:
[1] = target: T1, purified catalytic domain of recombinant human TACE (rhTACEc) (Homo sapiens, UniProt P78536, N452Q/S266A); test: TACE kinetic assay: cleavage of internally quenched peptide substrate TNF-FRET 2 (Ki); format: biochemical; details: TNF-FRET 2 substrate
T1 construct: 6xHis (C); made in house; host or cells: baculovirus/Hi5 insect cells
T1 sequence (P78536 215-477 S266A/N452Q): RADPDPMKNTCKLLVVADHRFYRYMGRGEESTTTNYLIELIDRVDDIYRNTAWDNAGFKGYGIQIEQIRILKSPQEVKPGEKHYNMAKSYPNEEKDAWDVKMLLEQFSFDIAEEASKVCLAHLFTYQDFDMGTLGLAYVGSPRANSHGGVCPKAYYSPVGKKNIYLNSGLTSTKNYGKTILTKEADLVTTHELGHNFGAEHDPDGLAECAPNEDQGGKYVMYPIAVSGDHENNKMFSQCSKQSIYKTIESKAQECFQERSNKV

[2] = tested on: TNF-α production from human whole blood; test: Inhibition of TNF-α production from human whole blood (hWBA), LPS stimulated, ELISA; format: cell-based; details: TNF-α by ELISA, read-out: hWBA (IC50)
[3] = Homo sapiens, 3.5 h, human whole blood diluted 1:1, LPS stimulated, 3.5 h
[4] = Homo sapiens, human whole blood diluted 1:1, LPS stimulated
[5] = Homo sapiens, LPS-stimulated human whole blood

Structure (SMILES)	pKi ([1]; read-out: Ki)	pIC50 [2, 4]	pIC50 [2, 5]	also measured
COc1ccc2c(c1)C(=O)N(C[C@@]1(c3cc4c(o3)CCNC4)NC(=O)NC1=O)C2 [Compound 2262]	8.18			pIC50 [2, 3]: ≤ 6.00
COc1ccc2c(c1)C(=O)N(C[C@@]1(c3cc4c(o3)CCN(CC(N)=O)C4)NC(=O)NC1=O)C2 [Compound 2483]		6.60		pKi ([1]; Ki): 9.15
COc1ccc2c(c1)C(=O)N(C[C@@]1(c3cc4c(N5CCNC5=O)nccc4o3)NC(=O)NC1=O)C2 [Compound 2292]	8.88	6.31		
COc1ccc2c(c1)C(=O)N(C[C@@]1(c3cc4nc(Nc5cncc(F)c5)ccc4o3)NC(=O)NC1=O)C2 [Compound 1731]	8.88		5.38	
COc1ccc2c(c1)C(=O)N(C[C@@]1(c3cc4cc(C(=O)NCCN(C)C)ccc4o3)NC(=O)NC1=O)C2 [Compound 2428]	9.12	6.94		
COc1ccc2c(c1)C(=O)N(C[C@@]1(c3cc4nc(-c5cnc(OC)nc5OC)ccc4o3)NC(=O)NC1=O)C2 [Compound 1509]	9.30		5.53	
COc1ccc2c(c1)C(=O)N(C[C@@]1(c3cc4ccc(C(N)=O)cc4o3)NC(=O)NC1=O)C2 [Compound 2408]	9.31	6.88		
COc1ccc2c(c1)C(=O)N(C[C@@]1(c3ccc(C#N)cc3)NC(=O)NC1=O)C2 [Compound 2477]	8.85	5.46		
COc1ccc2c(c1)C(=O)N(C[C@@]1(c3cc4nc(Nc5ccncc5)ccc4o3)NC(=O)NC1=O)C2 [Compound 2136]	9.37			pIC50 [2, 3]: 6.61
COc1ccc2c(c1F)C(=O)N(C[C@@]1(c3ccco3)NC(=O)NC1=O)C2 [Compound 313]	9.13		5.75	
COc1ccc2c(c1)C(=O)N(C[C@@]1(c3cc4cc(Br)ccc4o3)NC(=O)NC1=O)C2 [Compound 2192]	9.31			pIC50 [2, 3]: 5.48
O=C1NC(=O)[C@](CN2Cc3ccc(O)c(F)c3C2=O)(c2cc3ncccc3o2)N1 [Compound 1721]			< 5.00	pKi ([1]; Ki): 8.79
COc1ccc2c(c1F)C(=O)N(C[C@@]1(c3cc4nc(N5CCN(C)CC5)c(F)cc4o3)NC(=O)NC1=O)C2 [Compound 1710]	8.97		6.66	
CNc1cc2oc([C@]3(CN4Cc5ccc(OC)cc5C4=O)NC(=O)NC3=O)cc2cn1 [Compound 2291]	9.24	5.47		
COc1ccc2c(c1F)C(=O)N(C[C@@]1(c3cc4nc(N5CCCC(C(N)=O)C5)ccc4o3)NC(=O)NC1=O)C2 (some centres unmarked) [Compound 1517]	9.30		6.59	
CCN1CCN(c2ccc3oc([C@]4(CN5Cc6ccc(OC)c(F)c6C5=O)NC(=O)NC4=O)cc3n2)C[C@H]1C [Compound 1293]	9.10			pIC50 [2, 3]: 6.95
COc1ccc2c(c1)C(=O)N(C[C@@]1(c3ccc(-c4ccc(C(=NO)N5CCN(C)CC5)cc4)cc3)NC(=O)NC1=O)C2 [Compound 2456]	9.12	5.99		
COc1ccc2c(c1F)C(=O)N(C[C@@]1(c3cc4nc(-c5cccc(C#N)c5)ccc4o3)NC(=O)NC1=O)C2 [Compound 1504]	9.40		6.24	
COc1ccc2c(c1F)C(=O)N(C[C@@]1(c3cc4ccc(NC(C)=O)nc4o3)NC(=O)NC1=O)C2 [Compound 505]	9.25		6.60	
COc1ccc2c(c1)C(=O)N(C[C@@]1(c3cc4cc(C(=NO)N5CCCN(C)CC5)ccc4o3)NC(=O)NC1=O)C2 [Compound 2452]	9.17	6.46		
COc1ccc2c(c1F)C(=O)N(C[C@@]1(c3cc4nc(N5CCCNCC5)ccc4o3)NC(=O)NC1=O)C2 [Compound 1712]	9.08		6.72	
COc1ccc2c(c1)C(=O)N(C[C@@]1(c3cc4nc(N5CCNCC5)ccc4o3)NC(=O)NC1=O)C2 [Compound 2126]	9.18			pIC50 [2, 3]: 6.71
CNC1CCN(c2ccc3oc([C@]4(CN5Cc6ccc(OC)cc6C5=O)NC(=O)NC4=O)cc3n2)CC1 [Compound 2139]	8.84			pIC50 [2, 3]: 6.41
CN(C)C1CCN(c2ccc3oc(C4(CN5Cc6ccc(Cl)cc6C5=O)NC(=O)NC4=O)cc3n2)CC1 (centres unmarked) [Compound 1291]	8.88			pIC50 [2, 3]: 5.85
COc1ccc2c(c1F)C(=O)N(C[C@@]1(c3cc4nc(Nc5cn[nH]c5)ccc4o3)NC(=O)NC1=O)C2 [Compound 1730]	9.22		6.76	
COc1ccc2c(c1)C(=O)N(C[C@@]1(c3cc4nc(C(=O)NC5CC5)ccc4o3)NC(=O)NC1=O)C2 [Compound 1926]	9.92		6.44	
COc1ccc2c(c1F)C(=O)N(C[C@@]1(c3cc4cnc(Cl)cc4o3)NC(=O)NC1=O)C2 [Compound 2217]	9.22			pIC50 [2, 3]: 6.07
COc1ccc2c(c1)C(=O)N(C[C@@]1(c3ccc(-c4ccc(C5(CN)NC(=O)NC5=O)cc4)cc3)NC(=O)NC1=O)C2 (some centres unmarked) [Compound 2175]	8.68			pIC50 [2, 3]: 5.75

Structure (SMILES)	pKi ([1]; read-out: Ki)	pIC50 [2, 4]	pIC50 [2, 5]	also measured
COc1ccc2c(c1F)C(=O)N(C[C@@]1(c3cc4nc(C(N)=O)ccc4o3)NC(=O)NC1=O)C2 [Compound 1904]	9.21		6.88	
COc1ccc2c(c1)C(=O)N(C[C@@]1(c3cc4ncc(C(=NO)N5CCN(c6cnccn6)CC5)cc4o3)NC(=O)NC1=O)C2 [Compound 2469]	9.23	6.26		
COc1ccc2c(c1)C(=O)N(C[C@@]1(c3cc4cc(NS(C)(=O)=O)ccc4o3)NC(=O)NC1=O)C2 [Compound 2222]	9.15			pIC50 [2, 3]: 6.47
COCCNC(=O)c1cnc2cc([C@]3(CN4Cc5ccc(OC)cc5C4=O)NC(=O)NC3=O)oc2c1 [Compound 2467]	9.14	6.18		
COc1ccc2c(c1)C(=O)N(C[C@@]1(c3cc4cc(-c5c(C)nn(C)c5C)ccc4o3)NC(=O)NC1=O)C2 [Compound 2213]	9.39			pIC50 [2, 3]: 5.82
COc1ccc2c(c1F)C(=O)N(C[C@@]1(c3cc4nc(-c5ccnc(N6CCNCC6)c5)ccc4o3)NC(=O)NC1=O)C2 [Compound 1719]	9.62		6.83	
COc1ccc2c(c1F)C(=O)N(C[C@@]1(c3cc4c(F)cnc(C)c4o3)NC(=O)NC1=O)C2 [Compound 1314]	8.92		6.14	
CCN1CCN(c2cc3oc([C@]4(CN5Cc6ccc(OC)c(F)c6C5=O)NC(=O)NC4=O)cc3nc2C)CC1 [Compound 1920]	8.67		6.17	
COc1ccc2c(c1)C(=O)N(C[C@@]1(c3ccc(-c4ccc(C5(C)NC(=O)NC5=O)cc4)cc3)NC(=O)NC1=O)C2 (some centres unmarked) [Compound 2205]	9.18			pIC50 [2, 3]: ≤ 6.00
COc1ccc2c(c1F)C(=O)N(C[C@@]1(c3cc4cc(-c5c(C)nn(C)c5C)c(F)cc4o3)NC(=O)NC1=O)C2 [Compound 1181]	9.39		6.45	
COc1ccc2c(c1)C(=O)N(C[C@@]1(c3cc4cc(C(=O)NCCNC(C)C)c(F)cc4o3)NC(=O)NC1=O)C2 [Compound 1276]	8.92			pIC50 [2, 3]: 6.60
COc1ccc2c(c1)C(=O)N(C[C@@]1(c3cc4cc(C(=O)N5CCN(C)CC5)c(C)cc4o3)NC(=O)NC1=O)C2 [Compound 2427]	8.85	6.25		
COc1ccc2c(c1)C(=O)N(C[C@@]1(c3cc4ccc(C(=O)O)cc4o3)NC(=O)NC1=O)C2 [Compound 2410]	9.52	6.23		
COc1ccc2c(c1)C(=O)N(C[C@@]1(c3cc4nc(-c5c(C)noc5C)ccc4o3)NC(=O)NC1=O)C2 [Compound 1520]	9.30		5.93	
COc1ccc2c(c1)C(=O)N(C[C@@]1(c3cc4cc(C#N)ccc4o3)NC(=O)NC1=O)C2 [Compound 2476]	9.43	6.07		
COC(=O)c1ccc2oc([C@]3(CN4Cc5ccc(OC)cc5C4=O)NC(=O)NC3=O)cc2n1 [Compound 2463]	9.89	6.47		
COc1ccc2c(c1)C(=O)N(C[C@@]1(c3cc4nc(N(C)c5ccncc5)ccc4o3)NC(=O)NC1=O)C2 [Compound 2138]	9.06			pIC50 [2, 3]: 6.28
COc1ccc2c(c1)C(=O)N(C[C@@]1(c3cc4ccc(C(=O)NC[C@@H](C)O)cc4o3)NC(=O)NC1=O)C2 [Compound 2416]	9.25	6.05		
COc1ccc2c(c1)C(=O)N(C[C@@]1(c3cc4cnc(N5CCCC5=O)cc4o3)NC(=O)NC1=O)C2 [Compound 2253]	9.01			pIC50 [2, 3]: 5.57
O=C1NC(=O)[C@](CN2CCc3ccsc3C2=O)(c2cc3ncccc3o2)N1 [Compound 2494]	8.90	5.65		
COc1ccc2c(c1F)C(=O)N(C[C@@]1(c3cc4nc(-c5cccnc5)ccc4o3)NC(=O)NC1=O)C2 [Compound 2218]	9.63			pIC50 [2, 3]: 6.00
CCN1CCN(c2ccc3oc(C4(CN5CCc6ccsc6C5=O)NC(=O)NC4=O)cc3n2)CC1 (centres unmarked) [Compound 2496]	9.18	6.50		
COc1ccc2c(c1F)C(=O)N(C[C@@]1(c3cc4nc(C)c(Br)cc4o3)NC(=O)NC1=O)C2 [Compound 1917]	9.30		5.87	
COc1ccc2c(c1)C(=O)N(C[C@@]1(c3cc4c(C)ncc(C(=O)O)c4o3)NC(=O)NC1=O)C2 [Compound 2446]	8.65	5.80		
COc1ccc2c(c1)C(=O)N(C[C@@]1(c3cc4cnc(-c5c(C)noc5C)cc4o3)NC(=O)NC1=O)C2 [Compound 2288]	9.14	6.16		
COc1ccc2c(c1F)C(=O)N(C[C@@]1(c3cc4cc(-c5c(C)n[nH]c5C)c(F)cc4o3)NC(=O)NC1=O)C2 [Compound 1183]	9.85		6.63	
COc1ccc2c(c1)C(=O)N(C[C@@]1(c3cc4cc(-c5ccc(N(C)C)nc5)ccc4o3)NC(=O)NC1=O)C2 [Compound 2197]	9.07			pIC50 ([2]; human whole blood diluted 1:1, LPS stimulated, 3.5 h): 5.57
